Each structure is given as a SMILES string. Converted amounts (≈) assume the structure as drawn.

By solubility is commonly meant how much of the substance goes into solution per volume.

The nature of the data set: Solubility of etomidate. Type of data set: physicochemical. The note with it: aqueous buffer. An excerpt:
. […] . No. 4,289,783 to Mesens).
By “therapeutic agent/SAE-CD complex” is generally meant a clathrate or inclusion complex of a sulfoalkyl ether cyclodextrin derivative of the formula (1) and a therapeutic agent. By “complexed” is meant “being part of a clathrate or inclusion complex with”, i.e., a complexed therapeutic agent is part of a clathrate or inclusion complex with a sulfoalkyl ether cyclodextrin derivative. By “major portion” is meant at least about 50% by weight of the therapeutic compound. Thus, a formulation according to the present invention will contain a therapeutic agent of which more than about 50% by weight is complexed with an SAE-CD. In various embodiments, preferably greater than 60% by weight, more preferably greater than 75% by weight, even more preferably greater than 90% by weight, and most preferably greater than 95% by weight of the therapeutic agent will remain complexed with an SAE-CD while in the pharmaceutical formulation. The actual percent of drug that is complexed will vary according to the complexation equilibrium constant characterizing the complexation of a specific SAE- CD to a specific drug. […] . In this case the amount complexed is only 75%. Generally, the greater the percentage of drug that is complexed, the more effectively the SAE-CD will reduce pain on injection. […]

Compound `CCOC(=O)c1cncn1[C@H](C)c1ccccc1` [Etomidate, (R)-(+)ethyl 1-(1-phenylethyl)-1H-imidazole-5-carboxylate] had a solubility (0.025 M phosphate buffer at pH 7.0) of about 0.45 mg/mL (≈ 1840 µM) and a solubility (25mM phosphate buffer, pH 7.4) of 0.45 mg/mL (≈ 1840 µM).

For the origin of these results see US20030055023A1, “Formulations containing etomidate and a sulfoalkyl ether cyclodextrin” (priority 2001, published 2003).
